Measurements published in ChEMBL document CHEMBL3585339, “Synthesis, biological activities and pharmacokinetic properties of new fluorinated derivatives of selective PDE4D inhibitors” (Bioorg Med Chem, 2015).
Active and inactive are the calls of the source. No cut-off for these calls is given here.

Tests used:
[1] = Genotoxicity in human HTLA-230 cells assessed as gamma-H2AX production at 100 uM after 24 hrs by Western blot analysis; type: toxicity, cell-based; settings: htla-230, 24 h
[2] = AUC (0 to t) in BALB/c mouse plasma at 10 mg/kg, sc by LC-MS/MS analysis; type: ADME, organism-based
[3] = Plasma concentration in BALB/c mouse at 10 mg/kg, sc measured at 2 hrs by LC-MS/MS analysis; type: ADME, organism-based
[4] = Cmax in BALB/c mouse brain at 10 mg/kg, sc by LC-MS/MS analysis; type: ADME, organism-based; set-up: dose 10 mg/kg, route subcutaneous
[5] = Plasma concentration in BALB/c mouse at 10 mg/kg, sc measured at 0.17 hrs by LC-MS/MS analysis; type: ADME, organism-based
[6] = Plasma concentration in BALB/c mouse at 10 mg/kg, sc measured at 1 hr by LC-MS/MS analysis; type: ADME, organism-based
[7] = Drug uptake in BALB/c mouse brain at 10 mg/kg, sc measured at 0.17 hrs by LC-MS/MS analysis; type: ADME, organism-based; settings: read-out: Drug uptake
[8] = Effect on cAMP level in human HTLA-230 cells at 100 uM after 10 mins by enzyme immunoassay; type: ADME, cell-based; settings: htla-230, 10 min
[9] = Drug uptake in BALB/c mouse brain at 10 mg/kg, sc measured at 2 hrs by LC-MS/MS analysis; type: ADME, organism-based; settings: read-out: Drug uptake
[10] = tested on: Mus musculus; assay: Toxicity in mouse assessed as sedative effect by measuring reduction of total distance traveled at 10 mg/kg, po measured over 60 mins by open-field test; type: organism-based; settings: in vivo, 1 h
[11] = Elimination half life in BALB/c mouse plasma at 10 mg/kg, sc by LC-MS/MS analysis; type: ADME, organism-based; settings: read-out: beta t1/2 (converted)
[12] = Tmax in BALB/c mouse brain at 10 mg/kg, sc by LC-MS/MS analysis; type: ADME, organism-based
[13] = Ratio of AUC (0 to t) in BALB/c mouse brain to AUC (0 to t) in BALB/c mouse plasma at 10 mg/kg, sc by LC-MS/MS analysis; type: ADME, organism-based; settings: read-out: Ratio AUC
[14] = Plasma concentration in BALB/c mouse at 10 mg/kg, sc measured at 3 hrs by LC-MS/MS analysis; type: ADME, organism-based
[15] = Drug uptake in BALB/c mouse brain at 10 mg/kg, sc measured at 0.33 hrs by LC-MS/MS analysis; type: ADME, organism-based; settings: read-out: Drug uptake
[16] = Drug uptake in BALB/c mouse brain at 10 mg/kg, sc measured at 1 hr by LC-MS/MS analysis; type: ADME, organism-based; settings: read-out: Drug uptake
[17] = Cmax in BALB/c mouse plasma at 10 mg/kg, sc by LC-MS/MS analysis; type: ADME, organism-based; set-up: dose 10 mg/kg, route subcutaneous
[18] = Drug uptake in BALB/c mouse brain at 10 mg/kg, sc measured at 0.67 hrs by LC-MS/MS analysis; type: ADME, organism-based; settings: read-out: Drug uptake
[19] = target: T1, 3',5'-cyclic-AMP phosphodiesterase 4D (Homo sapiens, UniProt Q08499); assay: Inhibition of PDE4D in human HTLA-230 cells assessed as increase in forskolin-induced cAMP accumulation at 100 uM pretreated for 10 mins followed by forskolin induction measured after 20 mins by enzyme immunoassay; type: cell-based
[20] = Plasma concentration in BALB/c mouse at 10 mg/kg, sc measured at 0.67 hrs by LC-MS/MS analysis; type: ADME, organism-based
[21] = target: T1, 3',5'-cyclic-AMP phosphodiesterase 4D; assay: Inhibition of human recombinant PDE4D3 expressed in baculoviral system using cAMP as substrate at 10 uM by fluorescence polarization assay relative to control
[22] = target: 3',5'-cyclic-AMP phosphodiesterase 4B (Homo sapiens) (UniProt Q07343); assay: Inhibition of human recombinant PDE4B2 expressed in baculoviral system using cAMP as substrate at 10 uM by fluorescence polarization assay relative to control
[23] = target: 3',5'-cyclic-AMP phosphodiesterase 4A (Homo sapiens) (UniProt P27815); assay: Inhibition of human recombinant PDE4A4 expressed in baculoviral system using cAMP as substrate at 10 uM by fluorescence polarization assay relative to control
[24] = Cytotoxicity against human HTLA-230 cells at 100 uM after 24 hrs by lactate dehydrogenase release assay (reference value: 0.67 +/- 0.24%); type: cell-based; settings: htla-230, 24 h
[25] = tested on: Brain; assay: AUC (0 to t) in BALB/c mouse brain at 10 mg/kg, sc by LC-MS/MS analysis; type: ADME, organism-based; settings: in vivo
[26] = Plasma concentration in BALB/c mouse at 10 mg/kg, sc measured at 0.33 hrs by LC-MS/MS analysis; type: ADME, organism-based
[27] = Drug uptake in BALB/c mouse brain at 10 mg/kg, sc measured at 5 hrs by LC-MS/MS analysis; type: ADME, organism-based; settings: read-out: Drug uptake
[28] = tested on: Mus musculus; assay: Toxicity in mouse assessed as sedative effect by measuring prolongation of immobility time at 10 mg/kg, po measured over 60 mins by open-field test; type: organism-based; settings: in vivo, 1 h
[29] = Plasma concentration in BALB/c mouse at 10 mg/kg, sc measured at 5 hrs by LC-MS/MS analysis; type: ADME, organism-based
[30] = Drug uptake in BALB/c mouse brain at 10 mg/kg, sc measured at 3 hrs by LC-MS/MS analysis; type: ADME, organism-based; settings: read-out: Drug uptake
[31] = Elimination half life in BALB/c mouse brain at 10 mg/kg, sc by LC-MS/MS analysis; type: ADME, organism-based; settings: read-out: beta t1/2 (converted)
[32] = Tmax in BALB/c mouse plasma at 10 mg/kg, sc by LC-MS/MS analysis; type: ADME, organism-based
[33] = target: T1, 3',5'-cyclic-AMP phosphodiesterase 4D; assay: Inhibition of human recombinant PDE4D3 expressed in baculoviral system using cAMP as substrate by fluorescence polarization assay
[34] = Cytotoxicity against human HTLA-230 cells at 10 uM after 24 hrs by lactate dehydrogenase release assay (reference value: 0.67 +/- 0.24%); type: cell-based; settings: htla-230, 24 h

3',5'-cyclic-AMP phosphodiesterase 4A (Homo sapiens), sequence (P27815 whole entry): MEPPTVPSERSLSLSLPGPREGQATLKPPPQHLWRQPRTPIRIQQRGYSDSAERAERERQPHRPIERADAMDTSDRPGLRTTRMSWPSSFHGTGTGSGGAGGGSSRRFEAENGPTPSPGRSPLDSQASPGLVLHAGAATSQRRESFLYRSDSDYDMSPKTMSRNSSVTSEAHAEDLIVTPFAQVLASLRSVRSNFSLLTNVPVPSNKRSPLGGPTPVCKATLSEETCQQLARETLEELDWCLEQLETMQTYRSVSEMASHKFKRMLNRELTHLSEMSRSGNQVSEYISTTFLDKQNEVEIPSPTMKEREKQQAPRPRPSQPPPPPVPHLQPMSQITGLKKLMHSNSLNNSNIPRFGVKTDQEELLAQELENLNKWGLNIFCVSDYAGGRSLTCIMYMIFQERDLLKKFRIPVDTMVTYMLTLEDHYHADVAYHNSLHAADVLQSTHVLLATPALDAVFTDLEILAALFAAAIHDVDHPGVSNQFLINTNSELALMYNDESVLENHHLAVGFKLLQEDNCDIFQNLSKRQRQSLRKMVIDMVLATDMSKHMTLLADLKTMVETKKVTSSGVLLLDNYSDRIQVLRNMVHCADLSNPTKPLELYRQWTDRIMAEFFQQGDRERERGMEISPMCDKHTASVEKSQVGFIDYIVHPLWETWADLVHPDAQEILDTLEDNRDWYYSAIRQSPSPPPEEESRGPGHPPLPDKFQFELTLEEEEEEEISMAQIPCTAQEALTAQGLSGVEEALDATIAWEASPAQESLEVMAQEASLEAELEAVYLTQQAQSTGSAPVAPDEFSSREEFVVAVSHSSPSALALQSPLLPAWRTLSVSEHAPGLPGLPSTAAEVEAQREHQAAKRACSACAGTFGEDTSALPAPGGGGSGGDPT
3',5'-cyclic-AMP phosphodiesterase 4B (Homo sapiens), sequence (Q07343 whole entry): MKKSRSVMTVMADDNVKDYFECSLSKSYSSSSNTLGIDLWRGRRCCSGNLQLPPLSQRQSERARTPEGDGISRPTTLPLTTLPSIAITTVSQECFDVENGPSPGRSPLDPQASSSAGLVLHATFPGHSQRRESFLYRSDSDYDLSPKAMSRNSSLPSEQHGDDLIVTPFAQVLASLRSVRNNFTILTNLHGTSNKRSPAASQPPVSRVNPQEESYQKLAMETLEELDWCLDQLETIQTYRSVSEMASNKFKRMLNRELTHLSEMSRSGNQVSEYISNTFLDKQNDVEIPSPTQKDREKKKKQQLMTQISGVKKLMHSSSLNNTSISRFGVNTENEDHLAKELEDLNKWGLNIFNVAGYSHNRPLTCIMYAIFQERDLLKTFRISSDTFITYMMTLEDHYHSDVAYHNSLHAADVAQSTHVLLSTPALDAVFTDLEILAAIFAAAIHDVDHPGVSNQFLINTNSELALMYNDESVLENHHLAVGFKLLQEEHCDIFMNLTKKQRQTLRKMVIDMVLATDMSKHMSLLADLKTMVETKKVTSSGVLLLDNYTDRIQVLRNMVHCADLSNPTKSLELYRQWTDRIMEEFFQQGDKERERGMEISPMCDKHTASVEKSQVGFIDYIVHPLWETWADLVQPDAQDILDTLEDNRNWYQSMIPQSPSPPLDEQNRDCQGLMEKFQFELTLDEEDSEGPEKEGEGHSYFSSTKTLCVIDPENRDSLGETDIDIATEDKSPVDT
T1 sequence (Q08499 whole entry): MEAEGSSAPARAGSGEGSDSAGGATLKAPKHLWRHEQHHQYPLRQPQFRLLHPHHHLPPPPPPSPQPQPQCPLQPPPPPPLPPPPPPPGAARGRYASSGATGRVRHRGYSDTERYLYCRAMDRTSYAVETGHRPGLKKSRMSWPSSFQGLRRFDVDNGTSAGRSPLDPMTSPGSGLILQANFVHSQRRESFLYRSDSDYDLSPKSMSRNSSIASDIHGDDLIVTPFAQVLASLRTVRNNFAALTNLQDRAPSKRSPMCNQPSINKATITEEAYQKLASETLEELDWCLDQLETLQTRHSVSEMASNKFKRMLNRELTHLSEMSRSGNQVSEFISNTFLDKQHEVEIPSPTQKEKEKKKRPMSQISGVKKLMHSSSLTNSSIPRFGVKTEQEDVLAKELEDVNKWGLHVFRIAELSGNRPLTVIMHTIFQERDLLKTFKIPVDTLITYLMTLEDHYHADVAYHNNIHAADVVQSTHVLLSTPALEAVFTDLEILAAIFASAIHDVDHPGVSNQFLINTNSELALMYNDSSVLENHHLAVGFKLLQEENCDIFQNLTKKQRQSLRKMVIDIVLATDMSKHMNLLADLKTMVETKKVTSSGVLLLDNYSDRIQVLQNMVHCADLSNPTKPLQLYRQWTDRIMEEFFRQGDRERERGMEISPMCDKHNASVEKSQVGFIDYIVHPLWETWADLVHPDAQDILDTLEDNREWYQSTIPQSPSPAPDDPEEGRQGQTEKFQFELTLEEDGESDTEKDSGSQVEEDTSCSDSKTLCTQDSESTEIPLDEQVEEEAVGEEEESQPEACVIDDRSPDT

CC1CN(C(=O)CO/N=C/c2ccc(OC(F)F)c(OC3CCCC3)c2)CC(C)O1 (stereo not given)
Activity [1]: Non-toxic | AUC(0-t) [2]: 1220 ng·h/mL | concentration at 2 h [3]: 217 ng/mL | Cmax [4]: 1570 ng/g | concentration at 0.17 h [5]: 2160 ng/mL | concentration at 1 h [6]: 657 ng/mL | concentration at 0.17 h [7]: 936 ng/g | Activity [8]: Non-toxic | concentration at 2 h [9]: 96 ng/g | Activity [10]: Non-toxic | half-life [11]: 42 min | Tmax [12]: 10.2 min | Kp [13]: 0.429 | concentration at 3 h [14]: 11.6 ng/mL | concentration at 0.33 h [15]: 790 ng/g | concentration at 1 h [16]: 303 ng/g | Cmax [17]: 4410 ng/mL | concentration at 0.67 h [18]: 453 ng/g | inhibition [19]: Active | concentration at 0.67 h [20]: 1090 ng/mL | inhibition [21]: 74% | inhibition [22]: 29% | inhibition [23]: 32% | Activity [24]: 0.01% | AUCt [25]: 391 ng·h/g | concentration at 0.33 h [26]: 1740 ng/mL | concentration at 5 h [27]: 2.94 ng/g | Activity [28]: Non-toxic | concentration at 5 h [29]: 67.2 ng/mL | concentration at 3 h [30]: 5.45 ng/g | half-life [31]: 81.6 min | Tmax [32]: 10.2 min | IC50 [33]: 4840 nM

COc1ccc(/C=N/OCC(O)CN2CC(C)OC(C)C2)cc1OC1CCCC1 (stereo not given)
Activity [10]: Non-toxic | Activity [28]: Non-toxic

COc1ccc(/C=N/OCC(=O)N2CC(C)OC(C)C2)cc1OC1CCCC1 (stereo not given)
Activity [1]: Non-toxic | AUC(0-t) [2]: 1890 ng·h/mL | concentration at 2 h [3]: 20 ng/mL | Cmax [4]: 936 ng/g | concentration at 0.17 h [5]: 4410 ng/mL | concentration at 1 h [6]: 32.8 ng/mL | concentration at 0.17 h [7]: 1570 ng/g | Activity [8]: Non-toxic | concentration at 2 h [9]: 2.21 ng/g | Activity [10]: Non-toxic | half-life [11]: 49.2 min | Tmax [12]: 10.2 min | Kp [13]: 0.358 | concentration at 3 h [14]: 2.18 ng/mL | concentration at 0.33 h [15]: 396 ng/g | concentration at 1 h [16]: 3.29 ng/g | Cmax [17]: 2160 ng/mL | concentration at 0.67 h [18]: 84.2 ng/g | inhibition [19]: Active | concentration at 0.67 h [20]: 343 ng/mL | Activity [24]: 0.14% | AUCt [25]: 812 ng·h/g | concentration at 0.33 h [26]: 1310 ng/mL | Activity [28]: Non-toxic | concentration at 5 h [29]: 10.4 ng/mL | concentration at 3 h [30]: 1.19 ng/g | half-life [31]: 32.4 min | Tmax [32]: 10.2 min

CC1CN(CC(O)CO/N=C/c2ccc(OC(F)F)c(OC3CCCC3)c2)CC(C)O1 (stereo not given)
Activity [34]: 0.01% | Activity [10]: Toxic | inhibition [21]: 84% | inhibition [22]: 68% | inhibition [23]: 68% | Activity [24]: 8.83% | Activity [28]: Toxic | IC50 [33]: 190 nM

OC1CCN(CC(O)CO/N=C/c2ccc(OC(F)F)c(OC3CCCC3)c2)CC1 (stereo not given)
Activity [34]: 3.42% | inhibition [21]: 51% | inhibition [22]: 15% | inhibition [23]: 15% | Activity [24]: 31.37% | IC50 [33]: 2540 nM

CN1C(=O)CN=C(c2ccccc2)c2cc(Cl)ccc21 [DIAZEPAM]
Activity [10]: Toxic | Activity [28]: Toxic

CC1CN(C(=O)CCO/N=C/c2ccc(OC(F)F)c(OC3CCCC3)c2)CC(C)O1 (stereo not given)
Activity [1]: Non-toxic | inhibition [21]: 63% | inhibition [22]: 37% | inhibition [23]: 34% | Activity [24]: 0.01% | IC50 [33]: 470 nM

COc1ccc(C2CNC(=O)C2)cc1OC1CCCC1 (stereo not given) [ROLIPRAM]
Activity [10]: Toxic | Activity [28]: Toxic

O=C(CO/N=C/c1ccc(OC(F)F)c(OC2CCCC2)c1)N1CCOCC1
inhibition [21]: 63% | inhibition [22]: 31% | inhibition [23]: 36% | Activity [24]: 2.06% | IC50 [33]: 1120 nM

OC(CO/N=C/c1ccc(OC(F)F)c(OC2CCCC2)c1)CN1CCOCC1 (stereo not given)
Activity [1]: Non-toxic | inhibition [21]: 83% | inhibition [22]: 43% | inhibition [23]: 41% | Activity [24]: 0.21% | IC50 [33]: 1490 nM

CC1CN(NCC(O)CO/N=C/c2ccc(OC(F)F)c(OC3CCCC3)c2)CC(C)O1 (stereo not given)
inhibition [21]: 87% | inhibition [22]: 51% | inhibition [23]: 58% | Activity [24]: 1.54% | IC50 [33]: 190 nM

O=C(CO/N=C/c1ccc(OC(F)F)c(OC2CCCC2)c1)N1CCC(O)CC1
Activity [34]: 0.01% | inhibition [21]: 60% | inhibition [22]: 26% | inhibition [23]: 28% | Activity [24]: 4.62% | IC50 [33]: 2630 nM

COc1cc([C@@H]2c3cc4c(cc3[C@@H](O[C@@H]3O[C@@H]5CO[C@@H](C)O[C@H]5[C@H](O)[C@H]3O)[C@H]3COC(=O)[C@H]23)OCO4)cc(OC)c1O [ETOPOSIDE]
Activity [1]: Toxic
